Read-outs that look alike come from different tables or passages of the source.
How the values were obtained:
[1] = tested on: retinoic acid (RA) metabolism; test: Inhibition of retinoic acid (RA) metabolism in MCF-7 human breast cancer cells; assay type: cell-based; conditions: MCF7, 3H-RA substrate, Table 1
Description: MCF-7 human breast cancer cells were grown as stock cultures according to art-known protocols. One day before the experiment, RA is added to the stock cultures to stimulate RA-metabolism. At the start of the experiment, cell suspensions were incubated in a tissue culture medium containing ^3 H-RA as the substrate. Different concentrations of the test compound (dissolved in 1% DMSO) were added to the incubation mixtures, and at the end of the incubation, the unmetabolized RA is separated from its polar metabolites. The fraction containing the polar ^3 H-labelled metabolites was collected and counted in a scintillation counter. For each experiment, a control and a blank incubation were run in parallel. The IC50 values listed in table 1 are the concentrations needed to reduce the amount of metabolites to 50% of the control.

[2] = tested on: estradiol undecylate induced keratinization effects; test: Vaginal Keratinization Test on Ovariectomized Rats; assay type: in vivo; conditions: Rattus norvegicus, po, lowest active dose
Description: Ovariectomized rats were injected subcutaneously with a sesame oil solution containing 100 μg of estradiol undecylate in a volume of 0.1 ml per 100 g body weight and control animals were injected with sesame oil. On day one, two and three, test animals were treated once daily with a per os dose of the test compound and control animals with the drug vehicle (PEG 200). One day after the last treatment, the animals were sacrificed and their vaginas were processed for histological evaluation according to the method described in J. Pharmacol. Exp. Ther. 261(2), 773-779 (1992). A dose at which 50% of the tested rats show complete suppression of the estradiol undecylate induced keratinization effects is defined as an active dose.
In said table, the keratinization effect of the present compound number 3 is compared to the structurally closest art-known compounds, the latter being disclosed in EP-0,371,564.

[3] = 72 h, 50% of ovariectomized rats show complete suppression, per os once daily, 3 days, Table 1, read-out: Keratinization (LAD in mg/kg)
[4] = keratinization effect, per os, ovariectomized rats, comparison with EP-0,371,564 compounds, Table 2, read-out: LAD

IC50 [1] | Compound | minimal effective dose [2, 3] | minimal effective dose [2, 4]
3850 nM | O=c1ccc2cc([C@@H](c3cccc(C(F)(F)F)c3)n3cncn3)ccc2[nH]1 [Compound 2] | > 40 mg/kg | 
154 nM | O=c1ccc2cc(C(c3cccc(C(F)(F)F)c3)n3cncn3)cc(F)c2[nH]1 (centres unmarked) [Compound 11] | 10 mg/kg | 
 | O=c1ccc2cc(C(c3cccc(F)c3)n3ccnc3)ccc2[nH]1 (centres unmarked) [Compound 11-a, reference compound] |  | 40 mg/kg
1470 nM | Nn1c(=O)ccc2cc(C(c3cccc(C(F)(F)F)c3)n3cncn3)ccc21 (racemic) [Compound 20, (±)-(1-amino-6-[1H-1,2,4-triazol-1-yl-[3-(trifluoromethyl)phenyl]methyl]-2(1H)-quinolinone] | 5 mg/kg | 
> 10000 nM | O=c1ccc2cc(C(F)(c3cccc(C(F)(F)F)c3)n3cncn3)ccc2[nH]1 (centres unmarked) [Compound 5] | 5 mg/kg | 
10.2 nM | Cn1c(=O)ccc2cc(C(F)(c3cccc(C(F)(F)F)c3)n3cncn3)ccc21 (centres unmarked) [Compound 13] |  | 
18.2 nM | CCC(c1cccc(C(F)(F)F)c1)(c1ccc2[nH]c(=O)ccc2c1)n1cncn1 (centres unmarked) [Compound 6] | 10 mg/kg | 
510 nM | CC(c1cccc(C(F)(F)F)c1)(c1ccc2[nH]c(=O)ccc2c1)n1cncn1 (centres unmarked) [Compound 4] | 5 mg/kg | 
 | FC(F)(F)c1cccc(C(c2ccc3ncccc3c2)n2cncn2)c1 (centres unmarked) [Compound 66-a, reference compound] |  | 10 mg/kg
850 nM | O=c1ccc2cc([C@H](c3cccc(C(F)(F)F)c3)n3cncn3)ccc2[nH]1 [Compound 1, (-)-(R)-6-[1H-1,2,4-triazol-1-yl[3-(trifluoromethyl)phenyl]methyl]-2(1H)-quinolinone] | 1.25 mg/kg | 
764 nM | O=c1ccc2c(Cl)c(C(c3cccc(C(F)(F)F)c3)n3cncn3)ccc2[nH]1 (centres unmarked) [Compound 10] | 10 mg/kg | 
270 nM | CC(C)C(c1cccc(C(F)(F)F)c1)(c1ccc2[nH]c(=O)ccc2c1)n1cncn1 (centres unmarked) [Compound 7] | > 20 mg/kg | 
706 nM | Cc1cc(C(c2cccc(C(F)(F)F)c2)n2cncn2)cc2ccc(=O)[nH]c12 (centres unmarked) [Compound 9] | 10 mg/kg | 
8590 nM | Cn1c(=O)ccc2cc(C(c3cccc(C(F)(F)F)c3)n3cncn3)ccc21 (racemic) [Compound 12, (±)-1methyl-6-[1H-1,2,4-triazol-1-yl[3-(trifluoromethyl)phenyl]methyl]-2(1H)-quinolinone] | 2.5 mg/kg | 
3.25 nM | Cn1c(=O)ccc2cc(C(C)(c3cccc(C(F)(F)F)c3)n3cncn3)ccc21 (centres unmarked) [Compound 14] | 5 mg/kg | 
851 nM | O=c1ccc2cc(C(c3cccc(C(F)(F)F)c3)n3cncn3)ccc2[nH]1 (racemic) [Compound 3, (±)-6-[1H-1,2,4-triazol-1-yl[3-(trifluoromethyl)phenyl]methyl]-2(1H)-quinolinone] | 2.5 mg/kg | 2.5 mg/kg
4370 nM | Cn1c(=S)ccc2cc(C(c3cccc(C(F)(F)F)c3)n3cncn3)ccc21 (racemic) [Compound 21, (±)-1-methyl-6-[1H-1,2,4-triazol-1-yl[3-(trifluoromethyl]phenyl]methyl]-2(1H)-quinolinethione] | 5 mg/kg | 
